# Data as given in patent publication US8211945B2, “Carba-sugar amine derivative and glycolipid metabolic disorder treating agent containing the same as active ingredient” (Seikagaku Corporation, priority 2001, dated 2012).
# Where “and” joins values, the source holds several entries; their conditions need not be identical. Equal entries are not always repeated.
# Target: T1, human mutant β-galactosidase R201C (Homo sapiens, UniProt P16278, R201C)
# T1 construct: from tissue
# T1 sequence (P16278 29-677 R201C): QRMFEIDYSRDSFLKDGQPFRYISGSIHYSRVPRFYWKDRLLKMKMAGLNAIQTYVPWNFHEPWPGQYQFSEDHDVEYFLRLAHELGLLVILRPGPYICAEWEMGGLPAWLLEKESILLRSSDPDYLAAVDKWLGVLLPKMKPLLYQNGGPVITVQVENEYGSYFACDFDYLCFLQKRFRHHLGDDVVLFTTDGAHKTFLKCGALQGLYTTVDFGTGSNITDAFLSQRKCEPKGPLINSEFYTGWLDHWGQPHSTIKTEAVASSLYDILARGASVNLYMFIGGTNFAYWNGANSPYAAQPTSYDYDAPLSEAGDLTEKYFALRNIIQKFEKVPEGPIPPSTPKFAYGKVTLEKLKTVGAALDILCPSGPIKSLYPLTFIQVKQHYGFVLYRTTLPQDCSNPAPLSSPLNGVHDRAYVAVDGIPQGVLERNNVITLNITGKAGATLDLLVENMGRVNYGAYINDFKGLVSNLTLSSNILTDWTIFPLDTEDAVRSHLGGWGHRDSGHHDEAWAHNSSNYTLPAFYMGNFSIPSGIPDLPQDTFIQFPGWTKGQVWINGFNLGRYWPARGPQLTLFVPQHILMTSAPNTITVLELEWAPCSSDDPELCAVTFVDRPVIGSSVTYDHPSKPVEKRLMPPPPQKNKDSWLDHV
# Assay: Tissue migration and recovery of β-galactosidase activity, 1 week oral administration to recombinant mice
# Assay type: in vivo
# Conditions: for β-galactosidase activity, Test group: mice, 1 mM in drinking water, 1 week
# Protocol: One week thereafter, the mice were sacrificed to excise the cerebrum, the cerebellum, the heart, the lungs, the liver, the spleen, the kidney, a muscle (femoral muscle) and plasma. Also, tail tissues were used for the purpose of verifying changes in the β-galactosidase activity in the same individual before and after the administration. Each organ was crushed under ice-cooling using a homogenizer, and then the suspension of crushed cells was centrifuged at 8,000×g for 30 minutes. Thereafter, the supernatant fraction was recovered and used as an enzyme solution. The amount of protein in this enzyme solution was measured by the Bradford method, and the β-galactosidase activity was measured. With regard to the measurement of β-galactosidase activity, the enzyme activity during 30 minutes was measured at 37° C. using 4-methylumbelliferyl-β-D-galactopyranoside as the fluorogenic substrate. […] Three animals were used in each group to calculate the mean value.
compound,measurement,setting,value
"CCCCCCCCN[C@@H]1C=C(CO)[C@H](O)C(O)[C@@H]1O (stereo partly drawn) [Substance 18, N-octyl-5a-carba-α-L-arabino-hexo-5(5a)-enopyranosylamine]","β-galactosidase activity, Test group",Cerebellum,55.4 nmol/mg protein/30 minutes
same,Improving degree,"Cerebellum, test group vs control",5.3 Times
same,"β-galactosidase activity, Test group",Cerebrum,50.5 nmol/mg protein/30 minutes
same,Improving degree,"Cerebrum, test group vs control",6.0 Times
same,"β-galactosidase activity, Test group",Heart,241.2 nmol/mg protein/30 minutes
same,Improving degree,"Heart, test group vs control",14.2 Times
same,"β-galactosidase activity, Test group",Kidney,171.1 nmol/mg protein/30 minutes
same,Improving degree,"Kidney, test group vs control",6.2 Times
same,"β-galactosidase activity, Test group",Liver,186.8 nmol/mg protein/30 minutes
same,Improving degree,"Liver, test group vs control",4.7 Times
same,"β-galactosidase activity, Test group",Lungs,98.9 nmol/mg protein/30 minutes
same,Improving degree,"Lungs, test group vs control",12.4 Times
same,"β-galactosidase activity, Test group",Muscle (femoral muscle),91.4 nmol/mg protein/30 minutes
same,Improving degree,"Muscle (femoral muscle), test group vs control",11.3 Times
same,"β-galactosidase activity, Test group",Plasma,23.0 nmol/mg protein/30 minutes
same,Improving degree,"Plasma, test group vs control",7.9 Times
same,"β-galactosidase activity, Test group",Spleen,266.2 nmol/mg protein/30 minutes
same,Improving degree,"Spleen, test group vs control",17.1 Times
same,"β-galactosidase activity, After feeding","Tail (administered group), after 1 week feeding",518.8 nmol/mg protein/30 minutes
same,Improving degree,"Tail (administered group), after vs before feeding, same individual",~8 Times and 6.7 Times
same,β-galactosidase activity improved in average in the test group,"average of organs, test group vs control",9.1 times
same,level of the activity obtained in the cerebrum and the cerebellum,"cerebrum and cerebellum, test group",about 50 nmol/mg protein/30 minutes
